Earlier results in US9561225B2, “Pharmaceutical formulation containing opioid agonist, opioid antagonist and gelling agent” (Purdue Pharma L.P., priority 2001, dated 2017).

Key:
[1] = after oral administration
[2] = tested on: morphine-like opioid agonist / heroin effects

| SMILES | duration of action [1] | block of the effect of 25 mg of heroin ([2]; 1 mg intravenously) | effect on morphine-like opioid agonist effects ([2]; 0.4-0.8 mg intramuscularly or intravenously in man) | time of absorption (following oral administration) | protein binding (in vivo) |
| --- | --- | --- | --- | --- | --- |
| C[C@H]1[C@H]2Cc3ccc(O)cc3[C@]1(C)CCN2CC1CC1 [cyclazocine] | ~24 h |  |  |  |  |
| C=CCN1CC[C@]23c4c5ccc(O)c4O[C@H]2C(=O)CC[C@@]3(O)[C@H]1C5 [naloxone] |  | completely block | prevent or promptly reverse the effects of morphine-like opioid agonist |  |  |
| O=C1CC[C@@]2(O)[C@H]3Cc4ccc(O)c5c4[C@@]2(CCN3CC2CC2)[C@H]1O5 [naltrexone] | ~24 h |  |  | ≤ 1 h | approximately 21% |
